According to EPA's ToxValDB 9.5:
≈ marks a conversion by molar mass, not a printed value.

What was measured:
Aphidius rhopalosiphi = conditions: not reported; mortality
Apis mellifera = conditions: acute, mortality
Bibionidae = conditions: chronic/long-term
Daphnia magna = conditions: chronic/long-term; duration: 21 days; reproduction
Oncorhynchus mykiss = conditions: for LC50: acute, duration: 96 hours, mortality
Tagia sp. = conditions: acute; duration: 14 days; mortality
Zea sp. = conditions: acute; duration: 22 days; biomass
Chrysoperla externa = test: LR50; higher = less toxic; conditions: not reported; duration: 34 days; mortality
Bovidae = conditions: short-term; duration: 28 days; no effects
Canidae = conditions: Dog Other; for NOAEL: chronic, duration: 1 years, oral
Danio rerio = conditions: acute; mortality
Gallus gallus = conditions: for LEL: subchronic, oral, diet, no effects
Pontoscolex corethrurus = conditions: acute; duration: 14 days; body weight
Sus scrofa = conditions: short-term; duration: 28 days; oral; diet; Not specified; no effects
Mus musculus = conditions: repeat dose other
Rattus norvegicus = conditions: for LD50: mortality
Colinus virginianus = conditions: for LD50: acute, oral, mortality
Anas platyrhynchos = conditions: oral, mortality
Aphidius colemani = test: LR50; higher = less toxic; conditions: not reported; mortality
Homo sapiens = conditions: clinical, oral
[1] = reproduction developmental, reproduction
[2] = subchronic, duration: 90 days, oral
[3] = reproduction developmental, no effects

Compound C/C=C(\C)C(=O)O[C@H]1C[C@@H](OC(C)=O)[C@@]2(C(=O)OC)CO[C@H]3[C@@H](O)[C@@](C)([C@]45O[C@@]4(C)[C@H]4C[C@@H]5O[C@@H]5OC=C[C@@]54O)[C@H]4[C@]1(CO[C@]4(O)C(=O)OC)[C@@H]32 [Azadirachtin] has an LEL (Aphidius rhopalosiphi) of 57.6 g/ha, an LD50 (Apis mellifera; dermal) of over 11.8 µg/piece and an LD50 (Apis mellifera; duration: 48 hours, oral, unspecified) of over 8.1 µg/piece. The LD50 (Apis mellifera; oral, unspecified) was over 8.1 µg/piece, the NOEC (Bibionidae; duration: 28 days) was 0.0016 mg/L and the NOEC (Bibionidae; duration: 28 days, development) was 0.0016 mg/L. It also gave an NOEC (Daphnia magna) of 0.038 mg/L, an LC50 (Oncorhynchus mykiss) of 0.048 µg/mL (≈ 0.0666 µM) and an NOEC (Oncorhynchus mykiss; chronic/long-term, duration: 28 days, growth) of 0.0047 mg/L. It also gave an LC50 (Tagia sp.) of over 1000 mg/kg, an LEL (Zea sp.) of 30.9 g/ha and an LR50 (Chrysoperla externa) of 0.77 g/ha.

For Cl.N/C(=N\N=C\c1ccc(Cl)cc1)N/N=C/c1ccc(Cl)cc1 [Robenidine hydrochloride], the NOEC (repeat dose other, other) was over 1.8 mg/kg-day, the NOEC (Bibionidae; other) was 50 mg/kg and the LEL (Bovidae) was 60 mg/kg-day. For the same compound, the NOEL (Canidae; subchronic, duration: 90 days, organ weight) was 7.5 mg/kg-day, the LC50 (Danio rerio) was 0.036 µg/mL and the LEL (Gallus gallus; duration: 9 weeks, M/F) was 225 mg/kg-day. The LEL (Gallus gallus; duration: 35 days, M/F, Chicken) was 82.5 mg/kg-day, the NOAEL (Oryctolagus sp.; reproduction developmental, duration: 84 days, oral, diet, New Zealand, reproduction) was 11 mg/kg-day and the LEL (Oryctolagus sp.; subchronic, duration: 48 days, oral, diet, no effects) was 500 mg/kg-day. For the same compound, the LC50 (Pontoscolex corethrurus) was over 1000 mg/kg and the LEL (Sus scrofa) was 120 mg/kg-day.

C=C(C)[C@H]1CC=C(C)CC1 [D-Limonene] showed an NOAEL (Mus musculus; gross pathology) of 250 mg/kg-day, an NOAEL (Mus musculus; injection, intraperitoneal) of 215 mg/kg-day and an NOAEL (Rattus norvegicus; repeat dose other, histopathology: nonneoplastic) of 250 mg/kg-day.

Work on CCOP(=O)=O.CCOP(=O)=O.CCOP(=O)=O.[Al+3] [Fosetyl aluminum] yielded an NOEC (Colinus virginianus; [1]) of 216 mg/kg-day and an NOAEL (Rattus norvegicus; short-term, histopathology: nonneoplastic) of 500 mg/kg-day.

Work on CSCSSC [2,3,5-Trithiahexane] yielded an NOAEL [2] of 0.23 mg/kg-day, an NOEL (Rattus norvegicus; subchronic, duration: 13 weeks, oral, diet) of 0.3 mg/kg-day and an NOAEL (Rattus norvegicus; [2]) of 0.23 mg/kg-day.

With Cc1cc(SC(=O)CC(C)C)c(C)o1 [2,5-Dimethyl-3-thioisovalerylfuran] the NOAEL (subchronic, duration: 90 days) was 0.73 mg/kg-day and the NOAEL (Rattus norvegicus; subchronic, duration: 90 days) was 0.73 mg/kg-day.

Work on C=C1C[C@]23C[C@@]1(O)CC[C@H]2[C@@]12C=C[C@H](O)[C@@](C)(C(=O)O1)[C@H]2[C@@H]3C(=O)O [Gibberellic acid] yielded an LD50 (Anas platyrhynchos; acute, unspecified) of over 2000 mg/kg, an LD50 (Apis mellifera; dermal) of over 25 µg/piece and an LD50 (Colinus virginianus; diet) of over 904 mg/kg-day. The NOEL (Oryctolagus sp.; [3]) was 1000 mg/kg-day, the LD50 (Rattus norvegicus; acute, oral) was over 5000 mg/kg and the NOEL (Rattus norvegicus; [3]) was 1000 mg/kg-day. For the same compound, the NOAEL (Rattus norvegicus; subchronic, duration: 90 days, oral, organ weight) was 680 mg/kg-day and the LR50 (Aphidius colemani) was over 10 g/ha.

CCc1occc(=O)c1O [2-Ethyl-3-hydroxy-4-pyrone] showed an NOAEL (repeat dose other) of 200 mg/kg-day.

In the case of NC(Cc1ncn[nH]1)C(=O)O (configuration not stated) [1,2,4-Triazole-3-alanine], the LC50 (Anas platyrhynchos; short-term, duration: 5 days, feed) is reported as over 1340 mg/kg-day, the NOAEL (Oryctolagus sp.; developmental, development) is reported as 30 mg/kg-day and the LD50 (Rattus norvegicus; acute, oral) is reported as over 5000 mg/kg-day. For the same compound, the NOAEL (Rattus norvegicus; chronic) was 100 mg/kg-day and the NOAEL (Rattus norvegicus; developmental, development) was 100 mg/kg-day.

With CCOC(=O)/C(C)=C/C=C/C(C)=C/C=C/C=C(C)/C=C/C=C(C)/C=C/C1=C(C)CCCC1(C)C [8'-Apo-beta, psi-carotenoid acid, ethyl ester] the LEL (Gallus gallus; duration: 56 days, F) was 80 mg/kg-day and the NOAEL (Rattus norvegicus; subchronic, histopathology: nonneoplastic) was 3 mg/kg-day.

Compound CBr [Methyl bromide] has an NOAEL (Canidae) of 0.27 mg/kg-day, an NOAEL (Canidae; clinical chemistry) of 0.13 mg/kg-day and an LD50 (Colinus virginianus) of 73 mg/kg. It also gave an LC50 (Oncorhynchus mykiss) of 3.9 µg/mL, an LD50 (Rattus norvegicus; acute, oral) of 104 mg/kg and an NOAEL (Rattus norvegicus; [1]) of 90 mg/kg-day.

With CC1=C[C@H]2O[C@@H]3[C@H](O)[C@@H](O)[C@](C)([C@@]2(CO)[C@H](O)C1=O)[C@]31CO1 [Nivalenol] the LOAEL (Gallus gallus; repeat dose other, organ weight) was 0.36 mg/kg-day.

With CCCCCc1cc(O)c2c(c1)OC(C)(C)[C@@H]1CCC(C)=C[C@@H]21 [Tetrahydrocannabinol] the LEL (Homo sapiens; duration: 12 weeks, neurology) was 2.5 mg/day and the “LOAEL (mg/person-day)” value (Homo sapiens; capsule, other) was 2.5.

Work on CCN(CC)c1nc(C)cc(OP(=S)(OC)OC)n1 [Pirimiphos-methyl] yielded an LC50 (Oncorhynchus mykiss) of 0.2 µg/mL (≈ 0.655 µM), an NOAEL (Rattus norvegicus; acute, clinical signs) of 15 mg/kg-day and an NOAEL (Rattus norvegicus; chronic, duration: 2 years, clinical signs) of 0.4 mg/kg-day. The NOAEL (Rattus norvegicus; subchronic, duration: 13 weeks, clinical signs) was 2.1 mg/kg-day.
